Source: patent US9180212B2, “β-amyloid plaque imaging agents” (The Regents of the University of California, priority 2012, dated 2015)
“Also recorded” adds a separate entry of the source.

Legend:
[1] = system: brown adipose tissue (BAT) metabolic activity; test: ^18F-FDG PET/CT uptake in interscapular BAT of rats; assay type: in vivo, Sprague-Dawley rats
Source text: (§1) In still further experiments, binding/uptake of contemplated compounds to/by NET was investigated in adipose tissue, and especially brown adipose tissue. It should be appreciated that due to the innervation of brown adipose tissue (BAT) with neurotransmitter, norepinephrine is essential for regulation of thermogenesis, and thus has a role in obesity and diabetes. Norepinephrine acts by activating β3-adrenoceptor to increase BAT metabolic activity measurable using ^18F-FDG PET. Norepinephrine transporter (NET) inhibitors such as atomoxetine play an important role in BAT activity by increasing norepinephrine levels.
(§2) Male Sprague-Dawley rats were fasted for 24 hrs prior to ^18F-FDG administration. Rats were administered i.v. ˜0.3 mCi ^18F-FDG under 2% isoflurane anesthesia. The same rats were treated with atomoxetine 1 mg/kg, 30 mins before ^18F-FDG administration. Rats were awake for 60 mins and subsequently anesthetized for upper-body Inveon MicroPET/CT scan. To evaluate whether enhanced ^18F-FDG uptake in activated BAT could be reduced by pharmacologic interventions, propranolol ([…]) 5 mg/kg was given intraperitoneally in anesthetized rats, 30 minutes prior to atomoxetine administration. For NET imaging, ^11C-TAZA (4-^11C-methylamino-4′-dimethylaminoazobenzene) and ^11C-Dalene (4-methylamino-4′-(N—^11C-methyl-N-methylamino)stilbene) were administered iv (˜0.5-3 mCi) and scanned in Inveon PET/CT for 90 mins. Competition studies were done with atomoxetine (preinjection, 1-2 mg/kg). PET/CT data was analysed using IRW and PMOD.

[2] = molecular target: T1, amyloid plaques (Homo sapiens, UniProt P05067); test: ^3H-PIB competition binding in human Alzheimers brain homogenate
T1 construct: target the polymeric form of the β-amyloid peptide that is associated with senile plaques; from tissue; host or cells: human Alzheimer's disease brain homogenate (post mortem)

[3] = system: norepinephrine transporters (NET); test: Rat brain PET with atomoxetine pre-injection (NET binding/uptake); assay type: in vivo, Sprague-Dawley rats
Method: Based on earlier experimental observations (not shown), the inventors contemplated that the compounds presented herein not only bind with high specificity to β-amyloid, but also with similar high specificity to the NET. To investigate binding to/uptake by the NET, the effect of atomoxetine (ATX, a selective norepinephrine reuptake inhibitor) on the kinetics of Dalene and TAZA was tested. More specifically, Sprague-Dawley rats (308-468 g) received two 90 min PET scans each on two separate days (1-4 weeks apart) with an Inveon scanner. On first day each rat received a baseline scan, one with [^11C]Dalene and the other with [^11C]TAZA (96±8 MBq). The second day each animal was pre-injected i.v. with a 50 μl bolus of ATX (1-2 mg/Kg), 17 min before [^11C]Dalene and 2 min before [^11C]TAZA (33±7 MBq). The images were reconstructed dynamically in 25 frames (4×0.5 min, 8×1 min, 5×2 min, 2×5 min, 6×10 min). Each subject received a CT scan that was used for attenuation and scatter correction. Images were normalized to Paxinos & Watson space via co-registration with an MR rat template. Common regions of interest were drawn on the MR template and placed on brainstem, thalamus (Tha), and midbrain (Mid), brain regions with highest uptake as well as anterior cingulate cortex area 1 (Cg1), region with low NET density and which was chosen as a reference based on previous studies. Time activity curves (TACs) from all regions were analyzed in PMOD using Logan non-invasive method with Cg1's k2′ parameter estimated by fitting of brainstem data to MRTM.
Slices were then washed and exposed on to phosphor screens and slides were analysed by Optiquant image analysis program for SP binding Digital light units/mm^2 (DLU/mm^2). Sprague-Dawley rats were scanned after IV injection of ^11C-TAZA and ^11C-Dalene in Inveon PET/CT and displacement studies were done with atomoxetine (1 mg/kg). PET images were analyzed using PMOD. […] Presence of SP in the AD brains were confirmed using 4G8 antibody immunostaining for Aβ-amyloid. […] Ratios of brain stem to cingulate gyms (used as reference region) was >2.

[4] = molecular target: T2, SP (senile plaques) in hippocampus of AD patients (Homo sapiens, UniProt P05067); test: In vitro autoradiography of human hippocampus slices (AD vs control), senile plaque imaging; assay type: binding; details: for Binding to SP present in AD brains compared to the normal controls (in words): autoradiography
T2 construct: target the polymeric form of the β-amyloid peptide that is associated with senile plaques; from tissue; host or cells: 7 micron frozen sections of hippocampus of AD patients and control brains (UCI-ADRC repository)
Source text: Human post-mortem Studies: We used post mortem human brain specimens from the UCI-ADRC Brain tissue repository for in vitro experiments. Age and gender matched AD brain and control brain tissue were used. Control cases consisted of clinically assessed nondemented individuals ranging in age from 70-90 years of age. AD brain samples were selected for end-stage pathology (based upon comments by the neuropathologist and Braak & Braak stage of VI. We matched each AD case with a similarly aged control case. AD cases, were selected on the basis as having a clinic visit within 1 year of death. Frozen hippocampus and frontal cortex, regions vulnerable to AD pathology, were selected for these studies. Sections of the cerebellum were used as a measure of low/nonspecific binding. Chunks of frozen tissue were dissected for immunohistochemical and autoradiographic techniques, as well as for biochemical experiments.
Serial cryostat sections at 5-10 μm were used. The first set of sections was used to establish the extent of senile plaque and neurofibrillary tangle formation using immunohisto-chemistry and histological techniques. Antibodies against Aβ1-16, Aβ1-40 and Aβ1-42 were used to detect Aβ.
In vitro autoradiography studies were performed on 7 micron slices of hippocampus of AD patients (n=2) and control brains (n=2). Hippocampus slices were incubated with the radiotracer (10-25 μCi/cc) in 40% ethanol-water for ½ hour.
Binding to norepinephrine transporters (NET) were further evaluated in normal rats using PET/CT. Radiosynthesis was carried out by reacting 4-amino-4′-dimethylaminoazobenzene (1 mg/0.5 cc acetone for ^11C-TAZA) and 4-methylamino-4′-(N-methylamino)stilbene (1 mg/0.5 cc acetone for ^11C-Dalene) with 11C-methyltriflate prepared in the GE FXCPro synthesis unit. ^11C-Methyltriflate was trapped at −20° C., subsequently heated for 5 mins at 80° C. and purified using HPLC. In vitro autoradiography studies were performed on 7 micron slices of hippocampus of AD patients and control brains.
Slices were then washed and exposed on to phosphor screens and slides were analysed by Optiquant image analysis program for SP binding Digital light units/mm^2 (DLU/mm^2). Sprague-Dawley rats were scanned after IV injection of ^11C-TAZA and ^11C-Dalene in Inveon PET/CT and displacement studies were done with atomoxetine (1 mg/kg). PET images were analyzed using PMOD.

[5] = system: NET in brown adipose tissue (BAT); test: Rat PET/CT NET imaging in brown adipose tissue; assay type: in vivo, Sprague-Dawley rats; details: atomoxetine preinjection 1-2 mg/kg
Source text: as §1
as §2, with “For NET imaging, ^11C-TAZA (4-^11C-methylamino-4′-dimethylaminoazobenzene) and ^11C-Dalene (4-methylamino-4′-(N—^11C-methyl-N-methylamino)stilbene) were administered iv (˜0.5-3 mCi) and scanned in Inveon PET/CT for 90 mins. Competition studies were done with atomoxetine (preinjection, 1-2 mg/kg).” left out

[6] = cited from earlier work

T2 sequence (P05067 672-713 limits assumed): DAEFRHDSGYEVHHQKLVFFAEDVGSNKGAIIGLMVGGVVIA
T1 sequence (P05067 672-713 limits assumed): as above

CNCC[C@@H](Oc1ccccc1C)c1ccccc1 [Atomoxetine, atomoxetine]
increase of average ^18F-FDG uptake of IBAT compared to controls ([1]; atomoxetine 1 mg/kg, 30 mins before ^18F-FDG): > 15 times | average ^18F-FDG uptake of IBAT ([1]; atomoxetine 1 mg/kg, 30 mins before ^18F-FDG, controls 23.9±8.7): 365±170 kBq/cc

CC(C)NCC(O)COc1cccc2ccccc12 (centres unmarked) [Propranolol, propranolol]
effect on average ^18F-FDG uptake of IBAT (in words) ([1]; propranolol 5 mg/kg intraperitoneally, 30 minutes prior to atomoxetine): reduced

CNc1ccc(N=Nc2ccc(N(C)C)cc2)cc1 [TAZA]
IC50 ([2]; human Alzheimers brain homogenate tissue in 10% alcohol in PBS buffer, ^3H-PIB, read-out: binding affinity (IC50)): 12.8 nM | times better in binding to amyloid plaques compared to PIB ([2]; human brain tissue, from IC50 values): ~10 times

CN(C)c1ccc(C=Cc2ccc(N[11CH3])cc2)cc1 [^11C-Dalene, 4-^11C-methylamino-4′-(N,N-dimethylamino)stilbene]
Effect of atomoxetine on binding in NET brain regions (in words) ([3]; rat, in vivo): reduced the binding | baseline BPND (Mid) ([3]; rat, in vivo): 0.91 | baseline BPND (Tha) ([3]; rat, in vivo): 0.86 | baseline BPND (brainstem) ([3]; rat, in vivo): 1.42 | change in BPND in ATX condition (Mid) ([3]; rat, in vivo): 5.4% | change in BPND in ATX condition (Tha) ([3]; rat, in vivo): −12% | change in BPND in ATX condition (brainstem) ([3]; rat, in vivo): −18% | peak uptake in ATX condition relative to control ([3]; rat, in vivo): 14 fold | time at which ratio target/reference reached a constant level ([3]; rat, in vivo): 20 min | Displacement of radiotracer by unlabeled PIB (in words) ([4]; 10 μM PIB, hippocampus slices): not complete; also recorded: displaced | Binding to SP present in AD brains compared to the normal controls (in words) ([4]; hippocampus slices): bound specifically | reduction of IBAT binding by atomoxetine [5]: 35%

CN(C)c1ccc(N=Nc2ccc(N[11CH3])cc2)cc1 [^11C-TAZA, 4-^11C-methylamino-4′-dimethylamino-azobenzene]
change in BPND in ATX condition (brainstem) ([3]; ATX 1-2 mg/Kg i.v. pre-injection): 11% | Effect of atomoxetine on binding in NET brain regions (in words) ([3]; atomoxetine 1 mg/kg): reduced the binding | time at which ratio target/reference reached a constant level ([3]; baseline condition, post tracer injection): 20 min | baseline BPND (brainstem) ([3]; baseline scan, Logan non-invasive method, Cg1 reference): 0.7 | peak uptake in ATX condition relative to control ([3]; brainstem, ATX 1-2 mg/Kg i.v. pre-injection): 5 fold | baseline BPND (Mid) ([3]; midbrain, baseline scan, Cg1 reference): 0.50 | change in BPND in ATX condition (Mid) ([3]; midbrain, ATX 1-2 mg/Kg i.v. pre-injection): 18% | baseline BPND (Tha) ([3]; thalamus, baseline scan, Cg1 reference): 0.41 | change in BPND in ATX condition (Tha) ([3]; thalamus, ATX 1-2 mg/Kg i.v. pre-injection): 6% | Displacement of radiotracer by PIB ([4]; 10 μM PIB, hippocampus slices): > 80% | Displacement of radiotracer by unlabeled PIB (in words) ([4]; 10 μM PIB, hippocampus slices): displaced | Binding to SP compared with the other radiotracers (in words) ([4]; ^11C-TAZA vs ^11C-Dalene and ^11C-PIB): higher specific binding component; also recorded: highest binding | Binding to SP present in AD brains compared to the normal controls (in words) ([4]; hippocampus slices): bound specifically | reduction of IBAT binding by atomoxetine [5]: 60%

CC(=C(C#N)C#N)c1ccc2cc(N(C)CC[18F])ccc2c1 [^18F-FDDNP, 2-(1-{6-[(2-[^18F]fluoroethyl)(methyl)amino]-2-naphtyl}ethylidene)malonitrile]
log P [6]: > 3
